Test results: ChEMBL document CHEMBL3286198, “Targeting integrins αvβ3 and α5β1 with new β-lactam derivatives” (Eur J Med Chem, 2014)
The source made the active and inactive calls. No cut-off for these calls is given here.

Columns and labels:
Format in all cases: cell-based
Integrin alpha-V/beta-3 [1] = target: T1, Integrin alpha-V/beta-3 (Homo sapiens, UniProt P05106+P06756); assay: Agonist activity at alphavbeta3 integrin in human SK-MEL-24 cells assessed as increase of fibronectin-mediated cell adhesion after 30 mins by fluorescence assay
K562 = assay: Selectivity ratio of EC50 for alphavbeta3 integrin in human SK-MEL-24 cells to EC50 for alpha5beta1 integrin in human K562 cells
Integrin alpha-5/beta-1 [2] = target: T2, Integrin alpha-5/beta-1 (Homo sapiens, UniProt P05556+P08648); assay: Agonist activity at alpha5beta1 integrin in human K562 cells assessed as increase of fibronectin-mediated cell adhesion after 30 mins by fluorescence assay
Integrin alpha-5/beta-1 [3] = target: T2, Integrin alpha-5/beta-1; assay: Agonist activity at alpha5beta1 integrin in human K562 cells assessed as increase of cell adhesion after 30 mins by fluorescence assay
[4] = target: Integrin alpha-IIb/beta-3 (Homo sapiens) (UniProt P05106+P08514); assay: Agonist activity at alpha2bbeta3 integrin in PMA-stimulated human K562 cells assessed as increase of cell adhesion after 30 mins by flow cytometry in presence of tirofiban
Integrin alpha-V/beta-3 [5] = target: T1, Integrin alpha-V/beta-3; assay: Agonist activity at alphavbeta3 integrin in human SK-MEL-24 cells assessed as increase of fibronectin-mediated cell adhesion at 10 ug/ml after 30 mins by fluorescence assay in presence of neutralizing antibodies of alphav
Integrin alpha-5/beta-1 [6] = target: T2, Integrin alpha-5/beta-1; assay: Agonist activity at alpha5beta1 integrin in human K562 cells assessed as increase of fibronectin-mediated cell adhesion at 10 ug/ml after 30 mins by fluorescence assay in presence of neutralizing antibody of beta1
[7] = target: Integrin alpha-L/beta-2 (LFA-1) (Homo sapiens, UniProt P05107+P20701); assay: Antagonist activity at alphaLbeta2 integrin in human Jurkat E6.1 cells assessed as inhibition of ICAM1-mediated cell adhesion after 30 mins by fluorescence assay
Integrin alpha-4/beta-1 = Integrin alpha-4/beta-1 (Homo sapiens, UniProt P05556+P13612); assay: Antagonist activity at alpha4beta1 integrin in human Jurkat E6.1 cells assessed as inhibition of VCAM1-mediated cell adhesion after 30 mins by fluorescence assay
Integrin alpha-V/beta-3 [8] = target: T1, Integrin alpha-V/beta-3; assay: Agonist activity at alphavbeta3 integrin in human SK-MEL-24 cells assessed as increase of cell adhesion after 30 mins by fluorescence assay

Integrin alpha-4/beta-1, sequence (P05556 whole entry): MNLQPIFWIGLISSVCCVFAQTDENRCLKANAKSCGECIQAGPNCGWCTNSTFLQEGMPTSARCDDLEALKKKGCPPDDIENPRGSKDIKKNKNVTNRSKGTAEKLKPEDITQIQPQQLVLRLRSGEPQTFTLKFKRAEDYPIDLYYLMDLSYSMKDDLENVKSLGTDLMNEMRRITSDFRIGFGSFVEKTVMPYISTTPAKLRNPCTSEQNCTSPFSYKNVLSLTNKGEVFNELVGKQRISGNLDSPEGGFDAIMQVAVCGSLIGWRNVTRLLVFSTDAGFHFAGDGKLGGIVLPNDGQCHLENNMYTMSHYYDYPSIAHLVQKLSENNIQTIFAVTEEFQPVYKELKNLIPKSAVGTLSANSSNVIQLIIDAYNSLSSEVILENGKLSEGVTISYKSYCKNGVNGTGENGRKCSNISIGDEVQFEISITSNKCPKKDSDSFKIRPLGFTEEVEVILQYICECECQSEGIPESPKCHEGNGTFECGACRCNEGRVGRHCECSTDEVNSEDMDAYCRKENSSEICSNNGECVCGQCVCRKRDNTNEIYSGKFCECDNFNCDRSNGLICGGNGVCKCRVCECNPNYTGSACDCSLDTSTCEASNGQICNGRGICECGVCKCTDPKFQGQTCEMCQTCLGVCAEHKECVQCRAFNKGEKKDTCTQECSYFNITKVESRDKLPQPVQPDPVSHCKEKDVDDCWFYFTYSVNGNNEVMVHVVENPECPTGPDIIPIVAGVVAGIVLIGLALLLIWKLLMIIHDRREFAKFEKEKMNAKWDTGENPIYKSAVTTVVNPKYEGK
Integrin alpha-4/beta-1, sequence (P13612 whole entry): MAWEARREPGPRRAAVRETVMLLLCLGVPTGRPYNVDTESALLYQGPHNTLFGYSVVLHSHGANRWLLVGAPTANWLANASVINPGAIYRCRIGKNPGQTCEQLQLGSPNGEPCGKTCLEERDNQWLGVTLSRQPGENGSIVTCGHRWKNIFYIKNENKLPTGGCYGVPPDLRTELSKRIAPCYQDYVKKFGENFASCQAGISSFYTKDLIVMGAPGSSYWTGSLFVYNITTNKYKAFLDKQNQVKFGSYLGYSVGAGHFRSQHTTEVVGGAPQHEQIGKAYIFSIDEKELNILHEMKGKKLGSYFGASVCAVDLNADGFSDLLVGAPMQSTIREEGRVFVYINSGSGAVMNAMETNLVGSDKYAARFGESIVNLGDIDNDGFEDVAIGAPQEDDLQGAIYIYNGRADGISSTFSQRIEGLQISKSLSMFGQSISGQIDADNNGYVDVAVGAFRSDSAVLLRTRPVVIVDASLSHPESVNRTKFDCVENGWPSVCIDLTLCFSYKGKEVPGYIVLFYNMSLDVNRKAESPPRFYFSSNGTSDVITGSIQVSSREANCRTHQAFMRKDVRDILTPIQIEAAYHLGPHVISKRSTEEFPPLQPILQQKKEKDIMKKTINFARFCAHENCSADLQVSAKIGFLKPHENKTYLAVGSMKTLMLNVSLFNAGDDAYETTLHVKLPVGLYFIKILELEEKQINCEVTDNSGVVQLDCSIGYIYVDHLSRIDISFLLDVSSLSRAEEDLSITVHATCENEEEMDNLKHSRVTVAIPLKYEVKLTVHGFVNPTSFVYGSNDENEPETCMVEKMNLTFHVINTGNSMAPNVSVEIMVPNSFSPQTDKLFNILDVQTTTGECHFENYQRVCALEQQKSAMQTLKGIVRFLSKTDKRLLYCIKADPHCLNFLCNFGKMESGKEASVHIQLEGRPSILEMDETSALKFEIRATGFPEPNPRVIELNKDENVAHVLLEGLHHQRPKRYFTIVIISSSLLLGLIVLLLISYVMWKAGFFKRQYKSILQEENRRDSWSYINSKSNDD
Integrin alpha-L/beta-2 (LFA-1), sequence (P20701 whole entry): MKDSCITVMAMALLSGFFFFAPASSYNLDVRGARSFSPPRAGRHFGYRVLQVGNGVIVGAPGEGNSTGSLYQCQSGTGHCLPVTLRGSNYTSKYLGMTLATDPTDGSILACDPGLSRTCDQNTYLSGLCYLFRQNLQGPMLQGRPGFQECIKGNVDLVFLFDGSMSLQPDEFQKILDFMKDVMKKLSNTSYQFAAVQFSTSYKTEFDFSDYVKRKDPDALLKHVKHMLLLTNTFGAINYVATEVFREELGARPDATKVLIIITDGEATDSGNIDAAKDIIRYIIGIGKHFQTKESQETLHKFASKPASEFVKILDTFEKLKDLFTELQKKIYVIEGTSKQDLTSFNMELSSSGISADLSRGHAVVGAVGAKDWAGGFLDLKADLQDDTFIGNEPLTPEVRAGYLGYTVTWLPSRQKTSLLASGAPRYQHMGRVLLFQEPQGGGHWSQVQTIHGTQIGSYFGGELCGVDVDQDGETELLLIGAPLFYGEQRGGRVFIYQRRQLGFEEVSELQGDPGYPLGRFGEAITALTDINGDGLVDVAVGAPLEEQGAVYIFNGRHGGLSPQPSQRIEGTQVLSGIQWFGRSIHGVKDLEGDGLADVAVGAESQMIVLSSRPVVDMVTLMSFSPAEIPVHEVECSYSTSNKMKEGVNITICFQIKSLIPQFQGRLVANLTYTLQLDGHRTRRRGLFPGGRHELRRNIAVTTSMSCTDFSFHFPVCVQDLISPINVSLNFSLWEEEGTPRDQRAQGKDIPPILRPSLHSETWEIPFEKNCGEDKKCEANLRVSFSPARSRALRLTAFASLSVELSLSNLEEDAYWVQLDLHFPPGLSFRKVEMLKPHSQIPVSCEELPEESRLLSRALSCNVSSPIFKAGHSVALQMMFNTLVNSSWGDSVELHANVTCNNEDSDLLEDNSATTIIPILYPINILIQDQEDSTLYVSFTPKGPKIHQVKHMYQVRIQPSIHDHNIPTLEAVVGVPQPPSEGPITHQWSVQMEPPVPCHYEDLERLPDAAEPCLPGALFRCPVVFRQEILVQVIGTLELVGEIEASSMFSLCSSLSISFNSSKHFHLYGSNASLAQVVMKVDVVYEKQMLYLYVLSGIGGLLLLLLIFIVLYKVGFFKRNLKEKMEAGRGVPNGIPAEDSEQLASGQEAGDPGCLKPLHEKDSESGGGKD
Integrin alpha-L/beta-2 (LFA-1), sequence (P05107 whole entry): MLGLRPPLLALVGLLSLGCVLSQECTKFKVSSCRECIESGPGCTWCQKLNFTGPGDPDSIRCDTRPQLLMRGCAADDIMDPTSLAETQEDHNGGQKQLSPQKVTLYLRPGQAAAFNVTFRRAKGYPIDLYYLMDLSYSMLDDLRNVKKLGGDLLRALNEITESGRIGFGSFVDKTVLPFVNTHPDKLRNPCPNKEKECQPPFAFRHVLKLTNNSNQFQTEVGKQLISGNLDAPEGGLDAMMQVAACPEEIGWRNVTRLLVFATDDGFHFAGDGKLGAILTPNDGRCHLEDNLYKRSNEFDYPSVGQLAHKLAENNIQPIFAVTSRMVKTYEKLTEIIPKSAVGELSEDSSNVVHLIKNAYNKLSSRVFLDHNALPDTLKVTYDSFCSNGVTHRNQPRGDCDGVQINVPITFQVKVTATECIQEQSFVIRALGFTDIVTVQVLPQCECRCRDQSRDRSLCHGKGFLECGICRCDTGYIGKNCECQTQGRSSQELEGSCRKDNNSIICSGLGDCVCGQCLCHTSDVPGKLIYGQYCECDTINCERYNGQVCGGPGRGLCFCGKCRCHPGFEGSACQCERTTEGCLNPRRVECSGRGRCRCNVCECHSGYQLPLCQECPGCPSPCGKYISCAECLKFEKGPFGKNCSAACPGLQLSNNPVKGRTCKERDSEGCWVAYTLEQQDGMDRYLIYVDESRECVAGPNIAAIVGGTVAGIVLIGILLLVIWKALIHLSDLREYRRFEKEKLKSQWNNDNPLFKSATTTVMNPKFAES

Compound: NCc1ccc(NC(=O)N2C(=O)C[C@H]2C(=O)O)cc1
- Activity (Integrin alpha-V/beta-3 [1]): Dose-dependent effect
- EC50 (Integrin alpha-V/beta-3 [1]): 10400 nM
- Ratio EC50 (K562): 1000
- Activity (Integrin alpha-5/beta-1 [2]): Dose-dependent effect
- EC50 (Integrin alpha-5/beta-1 [2]): 365 nM

Compound: NCc1ccc(NC(=O)N2C(=O)CC2CC(=O)O)cc1 (stereo not drawn)
- Activity (Integrin alpha-V/beta-3 [1]): Dose-dependent effect
- EC50 (Integrin alpha-V/beta-3 [1]): 55 nM
- Activity (Integrin alpha-5/beta-1 [3]): Active
- Activity [4]: Active
- Ratio EC50 (K562): 5
- Activity (Integrin alpha-5/beta-1 [2]): Dose-dependent effect
- EC50 (Integrin alpha-5/beta-1 [2]): 12 nM
- Activity (Integrin alpha-V/beta-3 [5]): inactive
- Activity (Integrin alpha-5/beta-1 [6]): inactive
- IC50 [7]: ≥ 100000 nM
- IC50 (Integrin alpha-4/beta-1): ≥ 100000 nM
- Activity (Integrin alpha-V/beta-3 [8]): Active

Compound: NCc1ccc(NC(=O)N2C(=O)CC2CC(=O)NCC(=O)O)cc1 (stereo not drawn)
- Activity (Integrin alpha-V/beta-3 [1]): Dose-dependent effect
- EC50 (Integrin alpha-V/beta-3 [1]): 11 nM
- Activity (Integrin alpha-5/beta-1 [3]): Active
- Activity [4]: Active
- Activity (Integrin alpha-5/beta-1 [2]): Dose-dependent effect
- EC50 (Integrin alpha-5/beta-1 [2]): 763 nM
- Activity (Integrin alpha-V/beta-3 [5]): inactive
- Activity (Integrin alpha-5/beta-1 [6]): inactive
- IC50 [7]: ≥ 100000 nM
- IC50 (Integrin alpha-4/beta-1): ≥ 100000 nM
- Activity (Integrin alpha-V/beta-3 [8]): Active
